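Following 48 hours of exposure in 96-well plates, responses at five concentrations were used to interpolate endpoints linearly. GI50 is the concentration that inhibits growth by half.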 Activity calls are given as the source filed them. No stated cut-off is given here; in the data, active = GI50 up to about 1.1 µM and inactive = higher.
What was measured:
Assay in all cases: NCI-60 cell line screen, 48 h
[1] = test system: DLD-1
[2] = test system: DMS-114
[3] = test system: DMS-273
[4] = test system: M19-MEL
[5] = test system: RXF 631
[6] = test system: SNB-78
[7] = test system: XF498
[8] = test system: BT-549
[9] = test system: MDA-MB-231

Measured: GI50

Cc1ccc(NC(=O)C(=O)C2C(=O)N(c3ccccc3)N=C2N)cc1C (stereo unspecified)
inactive: [1] > 100 µM | [2] > 100 µM | [3] > 100 µM | [4] > 100 µM | [5] > 100 µM | [6] > 100 µM | [7] > 100 µM

Cc1ccc2nc3c(C)c(Cl)c(=O)cc-3sc2c1
inactive: [8] 20.9 µM | [1] 19.2 µM | [2] 2.97 µM | [3] 22.4 µM | [4] 4.68 µM | [9] 3.35 µM | [5] 24.3 µM | [6] 32.2 µM | [7] 10 µM

From ChEMBL document CHEMBL1201862, “PubChem BioAssay data set” (2004)
